# Earlier results, collected in patent US9707174B2, “Aqueous ophthalmic solution of olopatadine” (Gavis Pharmaceuticals, priority 2015, dated 2017).
# Conditions: pH about 7.0, room temperature, olopatadine by itself
smiles,measurement,value
CN(C)CC/C=C1/c2ccccc2COc2ccc(CC(=O)O)cc21 [olopatadine],soluble in water up to a concentration,about 0.18 w/v %
